The values below come from US9133115B2 (ACHILLION PHARMACEUTICALS, INC., priority 2008, dated 2015).

The first assay concerns HCV replicon. Put plainly: HCV replicon replication assay (NPT ELISA) in Huh-7 replicon-containing cells. To be noted: Hepatitis C virus, 72 h; HCV replicon in Huh-7 cells, three days incubation; read-out: EC50. It is filed as cell-based. The method in brief:
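Huh-7 cells carrying a bicistronic HCV replicon (HCV-IRES-neo, EMCV-IRES-driven NS3–NS5B, 3′-NTR) were seeded at 6000-7500 cells/well, grown 24 h to 60-70% confluence, then treated with graded compound concentrations. Replication was read as NPT level by capture ELISA (rabbit anti-NPTII, Eu-N1 secondary); interferon alpha served as positive control.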
Broadly, the EC50 is the concentration needed to bring the measured effect to its halfway point. In the case of `C=C[C@@H]1C[C@]1(NC(=O)[C@@H]1C[C@@H](Oc2cc(-c3ccccn3)nc3c4c(ccc23)CCC4)CN1C(=O)[C@@H](CC(=O)N1CCCCC1)C(C)(C)C)C(=O)NS(=O)(=O)C1CC1` [Compound 242, (2S,4R)-1-((S)-2-tert-butyl-4-oxo-4-(piperidin-1-yl)butanoyl)-N-((2S)-1-(cyclopropyl-sulfonylcarbamoyl)-2-vinylcyclopropyl)-4-(2-(pyridin-2-yl)-8,9-dihydro-7H-cyclopenta[h]quino-lin-4-yloxy)pyrrolidine-2-carboxamide], the EC50 is less than 1000 nM.

Take `C=C[C@@H]1C[C@]1(NC(=O)[C@@H]1C[C@@H](Oc2nccc3cc(OC)ccc23)CN1C(=O)[C@@H](CC(=O)N1CCCCC1)C(C)(C)C)C(=O)NS(=O)(=O)C1CC1` [Compound 101, (2S,4R)-1-((S)-2-tert-butyl-4-oxo-4-(piperidin-1-yl)butanoyl)-N-((1R,2S)-1-(cyclo-propylsulfonyl-carbamoyl)-2-vinylcyclopropyl)-4-(6-methoxyisoquinolin-1-yloxy)pyrrolidine-2-carboxamide]: the EC50 is less than 1000 nM.

As to `C=C[C@@H]1C[C@]1(NC(=O)[C@@H]1C[C@@H](Oc2cc(-c3ccccc3)nc3cc(OC)ccc23)CN1C(=O)[C@@H](CC(=O)n1c(C2CCCCN2)nc2cc(F)ccc21)C(C)(C)C)C(=O)NS(=O)(=O)C1CC1` (stereo partly drawn) [Compound 126, (2S,4R)-1-((2S)-2-tert-butyl-4-(5-fluoro-2-(piperidin-2-yl)-1H-benzo[d]imidazol-1-yl)-4-oxobutanoyl)-N-((1R,2S)-1-(cyclo-propylsulfonyl-carbamoyl)-2-vinylcyclopropyl)-4-(7-methoxy-2-phenylquinolin-4-yloxy)pyrrolidine-2-carboxamide], the EC50 is less than 1000 nM.

For the compound `C=C[C@@H]1C[C@]1(NC(=O)[C@@H]1C[C@@H](Oc2cc(-c3ccccn3)nc3cc(OC)ccc23)CN1C(=O)[C@@H](CC(=O)N1CC2CCC1C2)C(C)(C)C)C(=O)NS(=O)(=O)C1CC1` (stereo partly drawn) [Compound 220, (2S,4R)-1-((2S)-2-(2-(2-azabi-cyclo[2.2.1]heptan-2-yl)-2-oxoethyl)-3,3-dimethylbutanoyl)-N-((1R)-1-(cyclo-propylsulfonyl-carbamoyl)-2-vinylcyclopropyl)-4-(7-methoxy-2-(pyridin-2-yl)quinolin-4-yloxy)pyrrolidine-2-carboxamide], the EC50 is less than 1000 nM.

As to `C=C[C@@H]1C[C@]1(NC(=O)[C@@H]1C[C@@H](Oc2cc(-c3ccccn3)nc3c(Cl)c(OC)ccc23)CN1C(=O)[C@@H](CC(=O)N1CCC(F)(F)CC1)C(C)(C)C)C(=O)NS(=O)(=O)C1CC1` [Compound 194, (2S,4R)-1-((S)-2-tert-butyl-4-(4,4-difluoropiperidin-1-yl)-4-oxobutanoyl)-4-(8-chloro-7-methoxy-2-(pyridin-2-yl)quinolin-4-yloxy)-N-((1R)-1-(cyclopropyl-sulfonylcarbamoyl)-2-vinyl-cyclopropyl)pyr-rolidine-2-carboxamide], the EC50 is less than 1000 nM.

Consider `C=C[C@@H]1C[C@]1(NC(=O)[C@@H]1C[C@@H](Oc2cc(-c3ccccc3)nc3cc(OC)ccc23)CN1C(=O)[C@@H](CC(=O)NC1CCCC1)C(C)(C)C)C(=O)NS(=O)(=O)C1CC1` [Compound 49, (2S,4R)-1-((S)-2-tert-butyl-4-(cyclopentylamino)-4-oxobutanoyl)-N-((1R,2S)-1-(cyclopropyl-sulfonylcarbamoyl)-2-vinylcyclopropyl)-4-(7-methoxy-2-phenylquinolin-4-yloxy)pyrrolidine-2-carboxamide], for which the EC50 was less than 1000 nM.

Consider `C=C[C@@H]1C[C@]1(NC(=O)[C@@H]1C[C@@H](Oc2cc(-c3ccccc3)nc3cc(OC)ccc23)CN1C(=O)[C@@H](CC(=O)N1CC2CCC1C2)C(C)(C)C)C(=O)NS(=O)(=O)C1CC1` (stereo partly drawn) [Compound 79, (2S,4R)-1-((2S)-2-(2-(2-azabi-cyclo[2.2.1]heptan-2-yl)-2-oxoethyl)-3,3-dimethylbutanoyl)-N-((1R,2S)-1-(cyclopropyl-sulfonylcarbamoyl)-2-vinylcyclopropyl)-4-(7-methoxy-2-phenylquinolin-4-yloxy)pyrrolidine-2-carboxamide], for which the EC50 was less than 1000 nM.

Consider `C=C[C@@H]1C[C@]1(NC(=O)[C@@H]1C[C@@H](Oc2nc(-c3ccccc3)cc3cc(OC)ccc23)CN1C(=O)[C@@H](CC(=O)N1CCCCC1)C(C)(C)C)C(=O)NS(=O)(=O)C1CC1` [Compound 70, (2S,4R)-1-((S)-2-tert-butyl-4-oxo-4-(piperidin-1-yl)butanoyl)-N-((1R,2S)-1-(cyclo-propylsulfonyl-carbamoyl)-2-vinylcyclopropyl)-4-(6-methoxy-3-phenylisoquinolin-1-yloxy)pyrrolidine-2-carboxamide], for which the EC50 was less than 1000 nM.

As for `C=C[C@@H]1C[C@]1(NC(=O)[C@@H]1C[C@@H](Oc2cc(-c3ccccc3)nc3cc(OC)ccc23)CN1C(=O)[C@@H](CC(=O)N1CCCCC1)C(C)(C)C)C(=O)NS(=O)(=O)C(C)CC` (stereo partly drawn) [Compound 135, (2S,4R)-1-((S)-2-tert-butyl-4-oxo-4-(piperidin-1-yl)butanoyl)-N-((1R,2S)-1-(sec-butylsulfonyl-carbamoyl)-2-vinylcyclopropyl)-4-(7-methoxy-2-phenylquinolin-4-yloxy)pyrrolidine-2-carboxamide], the EC50 is less than 1000 nM.

For the compound `C=CC1C[C@]1(NC(=O)[C@@H]1C[C@@H](Oc2cc(-c3ccccc3)nc3cc(OC)ccc23)CN1C(=O)[C@@H](CC(=O)N1C(C)CCCC1C)C(C)(C)C)C(=O)NS(=O)(=O)C1CC1` (stereo partly shown) [Compound 163], the EC50 is less than 1000 nM.

For the compound `C=CC1CC1(NC(=O)[C@@H]1C[C@@H](Oc2cc(-c3ccccc3)nc3cc(OC)ccc23)CN1C(=O)[C@@H](CC(=O)N1CCc2ccccc2C1)C(C)(C)C)C(=O)NS(=O)(=O)C1CC1` (stereo partly drawn) [Compound 40, (2S,4R)-1-((S)-2-tert-butyl-4-(3,4-dihydro-isoquinolin-2(1H)-yl)-4-oxobutanoyl)-N-(1-(cyclopropyl-sulfonyl-carbamoyl)-2-vinylcyclopropyl)-4-(7-methoxy-2-phenylquinolin-4-yloxy)pyrrolidine-2-carboxamide], the EC50 is less than 1000 nM.

With `C=C[C@@H]1C[C@]1(NC(=O)[C@@H]1C[C@@H](NC(=O)n2c3ccccc3c3ccccc32)CN1C(=O)[C@@H](CC(=O)N1CCCC(F)C1)C(C)(C)C)C(=O)NS(=O)(=O)C1CC1` (stereo partly drawn) [Compound 188, N-((3R,5S)-1-((2S)-2-tert-butyl-4-(3-fluoropiperidin-1-yl)-4-oxobutanoyl)-5-((1R,2S)-1-(cyclopropylsulfonyl-carbamoyl)-2-vinyl-cyclopropyl-carbamoyl)pyrrolidin-3-yl)-9H-carbazole-9-carboxamide], the EC50 is less than 1000 nM.

As to `CC(C)(C)[C@H](CC(=O)N1CCCCC1)C(=O)N1C[C@H](n2cnc3ccccc32)C[C@H]1C(=O)NCC(=O)NS(=O)(=O)C1CC1` [Compound 127, (2S,4R)-4-(1H-benzo[d]imidazol-1-yl)-1-((S)-2-tert-butyl-4-oxo-4-(piperidin-1-yl)butanoyl)-N-(2-(cyclopropane-sulfonamido)-2-oxoethyl)pyr-rolidine-2-carboxamide], the EC50 was in the range of 1000 to 10000 nM.

Regarding `C=C[C@@H]1C[C@]1(NC(=O)[C@@H]1C[C@@H](Oc2cc(-c3ccccn3)nc3cc(OC)ccc23)CN1C(=O)[C@@H](CC(=O)N1CCOCC1)C(C)(C)C)C(=O)NS(=O)(=O)C1CC1` [Compound 166, (2S,4R)-1-((S)-2-tert-butyl-4-morpholino-4-oxobutanoyl)-N-((1R,2S)-1-(cyclopropylsulfonyl-carbamoyl)-2-vinylcyclopropyl)-4-(7-methoxy-2-(pyridin-2-yl)quinolin-4-yloxy)pyrrolidine-2-carboxamide], the EC50 was less than 1000 nM.

Regarding `C=C[C@@H]1C[C@]1(NC(=O)[C@@H]1C[C@@H](Oc2cc(-c3ccccc3)nc3cc(OC)ccc23)CN1C(=O)[C@@H](CC(=O)N1CCN(c2cnccn2)CC1)C(C)(C)C)C(=O)NS(=O)(=O)C1CC1` [Compound 196, (2S,4R)-1-((S)-2-tert-butyl-4-oxo-4-(4-(pyrazin-2-yl)piperazin-1-yl)butanoyl)-N-((1R,2S)-1-(cyclopropyl-sulfonylcarbamoyl)-2-vinylcyclopropyl)-4-(7-methoxy-2-phenylquinolin-4-yloxy)pyrrolidine-2-carboxamide], the EC50 is less than 1000 nM.

With `C=C[C@@H]1C[C@]1(NC(=O)[C@@H]1C[C@@H](Oc2cc(-c3ccccc3)nc3cc(OC)ccc23)CN1C(=O)[C@@H](CC(=O)N1CCCC1)C(C)(C)C)C(=O)NS(=O)(=O)C1CC1` [Compound 87, (2S,4R)-1-((S)-2-tert-butyl-4-oxo-4-(pyrrolidin-1-yl)butanoyl)-N-((1R,2S)-1-(cyclo-propylsulfonyl-carbamoyl)-2-vinylcyclopropyl)-4-(7-methoxy-2-phenylquinolin-4-yloxy)pyrrolidine-2-carboxamide], the EC50 is less than 1000 nM.

Regarding `C=CC1C[C@]1(NC(=O)[C@@H]1C[C@@H](Oc2cc(-c3ccccc3)nc3cc(OC)ccc23)CN1C(=O)[C@@H](CC(=O)N1CCN(C(=O)OC(C)(C)C)CC1)C(C)(C)C)C(=O)NS(=O)(=O)C1CC1` (stereo partly drawn) [Compound 164, tert-butyl 4-((S)-3-((2S,4R)-2-((1R,2S)-1-(cyclopropyl-sulfonylcarbamoyl)-2-vinylcyclopropyl-carbamoyl)-4-(7-methoxy-2-phenylquinolin-4-yloxy)pyrrolidine-1-carbonyl)-4,4-dime-thylpentanoyl)piper-azine-1-carboxylate], the EC50 is less than 1000 nM.

Turning to `C=C[C@@H]1C[C@]1(NC(=O)[C@@H]1C[C@@H](Oc2cc(-c3ccccc3)nc3cc(OC)ccc23)CN1C(=O)[C@@H](CC(=O)N1CC2C3CCC(C)(O3)C2C1)C(C)(C)C)C(=O)NS(=O)(=O)C1CC1` (stereo partly shown) [Compound 170], the EC50 is less than 1000 nM.

Still in this assay, the particulars now being: Hepatitis C virus, Huh-7.
`C=CC1CC1(NC(=O)[C@@H]1C[C@@H](Oc2cc(-c3ccccc3)nc3cc(OC)ccc23)CN1C(=O)[C@@H](CC(=O)N1CCc2ccccc2C1)C(C)(C)C)C(=O)NS(=O)(=O)C1CC1` (stereo partly drawn) [Compound 40, (2S,4R)-1-((S)-2-tert-butyl-4-(3,4-dihydro-isoquinolin-2(1H)-yl)-4-oxobutanoyl)-N-(1-(cyclopropyl-sulfonyl-carbamoyl)-2-vinylcyclopropyl)-4-(7-methoxy-2-phenylquinolin-4-yloxy)pyrrolidine-2-carboxamide] showed an EC50 of no more than 10000 nM.
